Source: patent publication US20110319392A1, “Thiazole Sulfonamide And Oxazole Sulfonamide Kinase Inhibitors” (priority 2009, published 2011)
Where a name gives a salt, the structure may show the parent alone.

Columns and labels:
Colo205 tumor cells = experiment: Cell growth inhibition assay (CellTiter-Glo), Colo205; type: cell-based, Human; conditions: Homo sapiens, COLO 205, 72 h; 3 days incubation
Method in brief: (§1)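 Cells plated at 500 cells/well in their growth media, dosed next day with nine-step 1:3 compound dilutions (final DMSO 0.2%), then incubated 3 days at 37° C, 5% CO2. Total ATP read by CellTiter-Glo luminescence as a surrogate for cell number; IC50 interpolated from 4-parameter fit versus DMSO controls.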

HN5 tumor cells = experiment: Cell growth inhibition assay (CellTiter-Glo), HN5; type: cell-based, Human; conditions: 3 days incubation
Method: Human breast tumor cells (BT474) were cultured in RPMI (Mediatech […]), containing 10% FBS (JRH Biosciences 12176) and 1% penicillin-streptomycin (Invitrogen 15140). Human head and neck tumor cells (HN5) were cultured in high glucose DMEM (Mediatech 50-013-PB) containing 10% FBS and 1% penicillin-streptomycin. Human colon tumor cells (Colo205) were cultured in RPMI (Mediatech 50-020-PB) containing 10% FBS and 1% penicillin-streptomycin. Human melanoma cancer cells (SK-MEL-28) were cultured in EMEM with nonessential amino acids (Mediatech 50-011-PB) containing 10% FBS, 1% sodium pyruvate (JT Baker 3354-04), and 1% penicillin-streptomycin. Human melanoma cancer cells (A375P F11s) were cultured in RPMI (Mediatech 50-020-PB) containing 10% FBS, 1% sodium pyruvate, and 1% penicillin-streptomycin. Human colon cancer cells (HT-29) were cultured in high glucose DMEM (Mediatech 50-013-PB) containing 10% FBS and 1% penicillin-streptomycin. Human melanoma cancer cells (SK-MEL-3) were cultured in McCoy's 5A (50-025-PB) containing 15% FBS, and 1% penicillin-streptomycin. All cell lines were maintained at 37° C. in a humidified 5% CO2, 95% air incubator. Cells were harvested using trypsin/EDTA (Invitrogen 25200), counted using a haemocytometer, and plated. For 96-well assays (using white full-area NUNC plates cat. #136102), cells were plated in 105 μL at the following densities (cells/well): HNS, 500; Colo 205, 500; SK-MEL-28, 500; A375P F11s, 500; HT-29, 500; SK-MEL-3, 500; and BT474, 3000. For 384-well assays (white full-area NUNC plates, cat. #781080), cells were plated in 48 μL at the following densities (cells/well): HNS, 500; Colo205, 500; SK-MEL-28, 500; A375P F11s, 500; HT-29, 500; SK-MEL-3, 500; and BT474, 2000.
The next day, compounds were diluted as follow: For 96-well assays, 13.5 μL of compound in DMSO were diluted using nine (9) serial 1:3 dilutions of 4.5 μL in 9 of DMSO. Medium (270 μL/well of RPMI with 10% FBS and 1% penicillin-streptomycin) was added to the plates. Aliquots (7 μL) were added to cells in the final assay giving a final DMSO concentration of 0.2%. For 384-well assays, 15 μL of compound in DMSO were diluted using nine (9) serial 1:3 dilutions of 5 μL in 10 μL of DMSO, followed by a further dilution of 5 μL of compound with 95 μL of medium, of which 2 μL were added to cells in the final assay giving a final DMSO concentration of 0.2%. Cells were incubated at 37° C., 5% CO2 for 3 days.
Total ATP was measured (as a surrogate estimate of cell number) using CellTiter-Glo® reagent (Promega G7571). Briefly, plates were removed from the incubator and allowed to equilibrate to room temperature for 30 minutes. CellTiter-Glo® (25 μL or 55 μL for 384-well or 96-well assays, respectively) reagent was added to each well and plates were shaken on an orbital plate shaker for 2 minutes. Plates were incubated without shaking for a further 30 minutes and read on an LJL Analyst GT reader in luminometer mode with an integration time of 0.5 seconds per well. Percent inhibition of cell growth was calculated relative to DMSO vehicle-treated control wells. Concentration of compound required to give 50% inhibition of vehicle-treated control cell growth (IC50) was interpolated using a 4-parameter fit for determining IC50 using the following equation: Y=A +((B−A)/(1+((C/X)̂D))) where […].

SK-MEL-28 tumor cells = experiment: Cell growth inhibition assay (CellTiter-Glo), SK-MEL-28; type: cell-based, Human; conditions: Homo sapiens, SK-MEL-28, 72 h; 3 days incubation
Method in brief: as §1

EGFR = target: T1, EGFR (Homo sapiens, UniProt P00533); experiment: EGFR substrate phosphorylation assay (HTRF); type: biochemical
T1 construct: made in house; host or cells: baculovirus expression system
T1 sequence (P00533 25-1210): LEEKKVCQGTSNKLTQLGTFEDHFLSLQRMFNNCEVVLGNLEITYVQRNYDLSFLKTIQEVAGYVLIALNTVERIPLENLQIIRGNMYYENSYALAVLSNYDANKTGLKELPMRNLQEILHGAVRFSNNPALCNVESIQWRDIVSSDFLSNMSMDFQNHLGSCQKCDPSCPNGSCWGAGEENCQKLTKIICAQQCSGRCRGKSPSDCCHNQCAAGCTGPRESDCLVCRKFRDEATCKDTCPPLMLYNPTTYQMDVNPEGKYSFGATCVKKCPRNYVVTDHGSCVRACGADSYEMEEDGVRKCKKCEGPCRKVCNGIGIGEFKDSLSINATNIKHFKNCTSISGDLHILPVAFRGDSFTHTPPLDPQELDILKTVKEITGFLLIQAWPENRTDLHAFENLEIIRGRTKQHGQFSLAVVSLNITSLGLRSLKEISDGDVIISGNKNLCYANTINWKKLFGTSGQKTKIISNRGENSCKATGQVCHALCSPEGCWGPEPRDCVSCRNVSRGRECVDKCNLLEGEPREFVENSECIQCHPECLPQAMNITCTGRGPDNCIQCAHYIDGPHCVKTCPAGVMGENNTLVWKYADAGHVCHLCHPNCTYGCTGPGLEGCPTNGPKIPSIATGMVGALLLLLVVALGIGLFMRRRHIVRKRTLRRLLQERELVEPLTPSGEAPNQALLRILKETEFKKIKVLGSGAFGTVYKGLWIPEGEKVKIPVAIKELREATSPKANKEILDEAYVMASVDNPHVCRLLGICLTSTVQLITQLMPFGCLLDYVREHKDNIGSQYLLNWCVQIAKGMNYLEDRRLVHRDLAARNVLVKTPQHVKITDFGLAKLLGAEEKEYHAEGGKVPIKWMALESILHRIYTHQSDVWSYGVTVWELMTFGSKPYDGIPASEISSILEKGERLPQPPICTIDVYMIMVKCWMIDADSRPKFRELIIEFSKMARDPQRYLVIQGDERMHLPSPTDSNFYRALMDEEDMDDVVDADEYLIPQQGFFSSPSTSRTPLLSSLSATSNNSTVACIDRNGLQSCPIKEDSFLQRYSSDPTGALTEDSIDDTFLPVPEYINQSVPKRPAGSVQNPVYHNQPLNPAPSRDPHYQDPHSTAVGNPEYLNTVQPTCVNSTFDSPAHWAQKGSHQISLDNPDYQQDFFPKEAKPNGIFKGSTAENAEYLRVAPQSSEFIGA
Method in brief: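 Baculovirus-expressed EGFR (0.8 nM) or ErbB2 (10 nM) in enzyme mix, preincubated 1 h at 20 °C with compound (0.00027–47.6 μM final), then 90 min at 20 °C with substrate mix of 20 μM ATP, 0.8 uM biotinylated Peptide C, MnCl2, MOPS pH 7.5. Phosphotyrosine by HTRF; pIC50 reported.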

Structure (SMILES) | IC50 (Colo205 tumor cells) [nM] | IC50 (HN5 tumor cells; Homo sapiens, 72 h) [nM] | IC50 (SK-MEL-28 tumor cells) [nM] | IC50 (EGFR) [nM] | IC50 (HN5 tumor cells) [nM]
CC(C)c1nc(-c2ccc(F)c(NS(=O)(=O)c3c(F)cccc3F)c2)c(-c2ccnc(Nc3ccc(N4CCC(C#N)CC4)nc3)n2)s1 [Example 24, N-{5-[5-(2-{[6-(4-Cyano-1-piperidinyl)-3-pyridinyl]amino}-4-pyrimidinyl)-2-(1-methylethyl)-1,3-thiazol-4-yl]-2-fluorophenyl}-2,6-difluorobenzenesulfonamide] | < 100 | > 1000 | < 100 | > 1000 | –
CC(C)c1nc(-c2ccc(F)c(NS(=O)(=O)c3c(F)cccc3F)c2)c(-c2ccnc(Nc3ccncc3)n2)s1 [Example 102] | 100 to 1000 | > 1000 | 100 to 1000 | > 1000 | –
CC(=O)N1CCN(c2ccc(Nc3nccc(-c4sc(C(C)C)nc4-c4cccc(NS(=O)(=O)c5cn(C)cn5)c4)n3)cn2)CC1 [Example 36] | 100 to 1000 | > 1000 | 100 to 1000 | < 100 | –
CCOc1ccc(Nc2nccc(-c3sc(C(C)C)nc3-c3ccc(F)c(NS(=O)(=O)c4c(F)cccc4F)c3)n2)cc1N1CCN(CCF)CC1 [Example 98] | 100 to 1000 | > 1000 | 100 to 1000 | < 100 | –
CC(C)c1nc(-c2cccc(NS(=O)(=O)c3c(F)cccc3F)c2)c(-c2ccnc(Nc3ccc(N4CCOCC4)c(C(=O)O)c3)n2)s1 [Example 14, 5-({4-[4-(3-{[(2,6-Difluorophenyl)sulfonyl]amino}phenyl)-2-(1-methylethyl)-1,3-thiazol-5-yl]-2-pyrimidinyl}amino)-2-(4-morpholinyl)benzoic acid] | < 100 | > 1000 | < 100 | 100 to 1000 | –
Cc1cc(Nc2nccc(-c3sc(C(C)C)nc3-c3ccc(F)c(NS(=O)(=O)c4c(F)cccc4F)c3)n2)ccn1 [Example 116] | < 100 | > 1000 | < 100 | 100 to 1000 | –
CC(C)c1nc(-c2cccc(NS(=O)(=O)C3CCCCC3)c2)c(-c2ccnc(Nc3ccc(N4CCOCC4)c(F)c3)n2)s1 [Example 38] | 100 to 1000 | > 1000 | 100 to 1000 | > 1000 | –
COc1ccc(S(=O)(=O)Nc2cccc(-c3nc(C(C)C)sc3-c3ccnc(Nc4ccc(N5CCOCC5)nc4)n3)c2)cn1 [Example 49] | < 100 | > 1000 | < 100 | > 1000 | –
O=S(=O)(Nc1cccc(-c2nc(N3CCOCC3)sc2-c2ccnc(Nc3ccc(N4CCOCC4)nc3)n2)c1Cl)c1c(F)cccc1F [Example 146] | < 100 | < 100 | < 100 | > 1000 | –
CN1CCN(c2nc(-c3ccc(F)c(NS(=O)(=O)c4c(F)cccc4F)c3)c(-c3ccnc(Nc4ccc(N5CCOCC5)nc4)n3)s2)CC1 [Example 126] | < 100 | 100 to 1000 | < 100 | 100 to 1000 | –
COc1cc(N2CCN(CCS(C)(=O)=O)CC2)c(C)cc1Nc1nccc(-c2sc(C(C)C)nc2-c2cccc(NS(=O)(=O)c3c(F)cccc3F)c2)n1 [Example 19] | < 100 | > 1000 | 100 to 1000 | < 100 | –
CS(=O)(=O)CCN1CCN(c2ccc(Nc3nccc(-c4oc(N5CCCC5)nc4-c4cccc(NS(=O)(=O)c5c(F)cccc5F)c4F)n3)cc2F)CC1 [Example 167] | < 100 | 100 to 1000 | < 100 | 100 to 1000 | –
CC(=O)N1CCN(c2ccc(Nc3nccc(-c4sc(C(C)C)nc4-c4cccc(NS(=O)(=O)c5ccccc5F)c4)n3)cn2)CC1 [Example 12, N-{3-[5-(2-{[6-(4-Acetyl-1-piperazinyl)-3-pyridinyl]amino}-4-pyrimidinyl)-2-(1-methylethyl)-1,3-thiazol-4-yl]phenyl}-2-fluorobenzenesulfonamide] | < 100 | 100 to 1000 | < 100 | < 100 | –

Continued, values first:

IC50 (Colo205 tumor cells) [nM] | IC50 (HN5 tumor cells; Homo sapiens, 72 h) [nM] | IC50 (SK-MEL-28 tumor cells) [nM] | IC50 (EGFR) [nM] | IC50 (HN5 tumor cells) [nM] | Structure (SMILES)
100 to 1000 | > 1000 | 100 to 1000 | > 1000 | – | CCc1nc(-c2cccc(CNS(=O)(=O)c3ccccc3)c2)c(-c2ccnc(Nc3ccc(N4CCOCC4)c(F)c3)n2)s1 [Example 34]
100 to 1000 | > 1000 | 100 to 1000 | 100 to 1000 | – | CN(C)c1nc(-c2ccc(F)c(NS(=O)(=O)c3c(F)cccc3F)c2)c(-c2ccnc(Nc3ccc(N4CCOCC4)nc3)n2)s1 [Example 27, N-{5-[2-(Dimethylamino)-5-(2-{[6-(4-morpholinyl)-3-pyridinyl]amino}-4-pyrimidinyl)-1,3-thiazol-4-yl]-2-fluorophenyl}-2,6-difluorobenzenesulfonamide]
< 100 | > 1000 | < 100 | > 1000 | – | CC(=O)N1CCN(c2ccc(Nc3nccc(-c4sc(C(C)C)nc4-c4cccc(NS(=O)(=O)c5ccc(F)cc5)c4)n3)cn2)CC1 [Example 10, N-{3-[5-(2-{[6-(4-Acetyl-1-piperazinyl)-3-pyridinyl]amino}-4-pyrimidinyl)-2-(1-methylethyl)-1,3-thiazol-4-yl]phenyl}-4-fluorobenzenesulfonamide]
100 to 1000 | – | 100 to 1000 | < 100 | 100 to 1000 | CCNc1nc(-c2cccc(NS(=O)(=O)c3ccccc3)c2)c(-c2ccnc(Nc3ccc(OCCN4CCCC4)c(F)c3)n2)s1 [Example 1, N-(3-(2-(Ethylamino)-5-{2-[(3-fluoro-4-[[2-(1-pyrrolidinyl)ethyl]oxy}phenyl)amino]-4-pyrimidinyl}-1,3-thiazol-4-yl)phenyl]benzenesulfonamide]
< 100 | 100 to 1000 | < 100 | 100 to 1000 | – | CCNc1nc(-c2cccc(NS(=O)(=O)c3c(F)cccc3F)c2)c(-c2ccnc(Nc3ccc(N4CCOCC4)nc3)n2)s1 [Example 152]
< 100 | 100 to 1000 | < 100 | < 100 | – | COc1ccc(Nc2nccc(-c3sc(C(C)C)nc3-c3cccc(NS(=O)(=O)c4c(F)cccc4F)c3)n2)cc1N(C)C [Example 18, N-{3-[5-(2-{[3-(Dimethylamino)-4-(methyloxy)phenyl]amino}-4-pyrimidinyl)-2-(1-methylethyl)-1,3-thiazol-4-yl]phenyl}-2,6-difluorobenzenesulfonamide trifluoroacetate]
< 100 | 100 to 1000 | 100 to 1000 | 100 to 1000 | – | O=S(=O)(Nc1cc(-c2nc(N3CCOCC3)sc2-c2ccnc(Nc3ccc(N4CCOCC4)nc3)n2)ccc1F)c1c(F)cccc1F [Example 121]
< 100 | > 1000 | < 100 | > 1000 | – | CS(=O)(=O)c1cccc(Nc2nccc(-c3sc(N4CCOCC4)nc3-c3cccc(NS(=O)(=O)c4c(F)cccc4F)c3Cl)n2)c1 [Example 145]
